Test results from patent publication US20100143383A1, “OXGR1 AGONISTS FOR USE IN THERAPIES FOR METABOLIC DISORDERS” (priority 2008, published 2010).

Columns and labels:
isolated mouse islets = experiment: glucose-stimulated insulin secretion (GSIS/GDIS) in isolated mouse islets, insulin by ELISA; type: cell-based; settings: WT C57BL/6J mouse islets, 60 min, FIG. 3
Experimental: Pancreatic islets of Langerhans were isolated from the pancreata of wild type (WT) C57BL/6J mice (Taconic Farm, N.Y.) by collagenase digestion and discontinuous Ficoll gradient separation, a modification of the original method of Lacy and Kostianovsky (Lacy P E, Kostianovsky M: Diabetes 16:35-39, 1967). The islets were cultured overnight in RPMI 1640 medium (11 mM glucose) before GDIS assay.
To measure GSIS, islets were first preincubated for 30 min in the Krebs-Ringer bicarbonate (KRB) buffer with 2 mM glucose (in petri dishes). The KRB medium contains 143.5 mM Na+, 5.8 mM K+, 2.5 mM Ca2+, 1.2 mM Mg2+, 124.1 mM Cl−, 1.2 mM PO43−, 1.2 mM […], 25 mM CO32−2 mg/ml bovine serum albumin (pH 7.4). The islets were then transferred to a 96-well plate (one islet/well) and incubated at 37° C. for 60 min in 200 μl of KRB buffer with 2 or 16 mM glucose, and other agents to be tested such as GLP-1 included as a control. (Zhou Y P, et al: J Biol Chem 278:51316-51323, 2003). Insulin was measured in aliquots of the incubation buffer by ELISA with a commercial kit (ALPCO Diagnostics, Windham, N.H.).
The compound had no effects on the basal insulin secretion at 2 mM glucose (G2).

recombinant human OXGR1 = recombinant human OXGR1 (Homo sapiens, UniProt Q96P68); settings: Nature 429:188-193, 2004, read-out: EC50 for activation of OXGR1; cited from earlier work
recombinant mouse OXGR1 = recombinant mouse OXGR1 (Mus musculus, UniProt Q6IYF8); settings: Nature 429:188-193, 2004, read-out: EC50 for activation of OXGR1; cited from earlier work
Sequence of recombinant mouse OXGR1 (Q6IYF8 whole entry): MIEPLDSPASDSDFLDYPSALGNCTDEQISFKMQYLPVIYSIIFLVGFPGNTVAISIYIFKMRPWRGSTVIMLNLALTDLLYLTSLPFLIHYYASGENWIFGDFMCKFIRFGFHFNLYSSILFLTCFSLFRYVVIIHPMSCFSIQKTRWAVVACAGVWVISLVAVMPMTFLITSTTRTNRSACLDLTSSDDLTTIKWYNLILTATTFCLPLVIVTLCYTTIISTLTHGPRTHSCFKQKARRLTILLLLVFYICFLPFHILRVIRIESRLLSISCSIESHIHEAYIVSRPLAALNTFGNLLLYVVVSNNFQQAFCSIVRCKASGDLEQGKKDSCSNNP

Sequence of recombinant human OXGR1 (Q96P68 whole entry): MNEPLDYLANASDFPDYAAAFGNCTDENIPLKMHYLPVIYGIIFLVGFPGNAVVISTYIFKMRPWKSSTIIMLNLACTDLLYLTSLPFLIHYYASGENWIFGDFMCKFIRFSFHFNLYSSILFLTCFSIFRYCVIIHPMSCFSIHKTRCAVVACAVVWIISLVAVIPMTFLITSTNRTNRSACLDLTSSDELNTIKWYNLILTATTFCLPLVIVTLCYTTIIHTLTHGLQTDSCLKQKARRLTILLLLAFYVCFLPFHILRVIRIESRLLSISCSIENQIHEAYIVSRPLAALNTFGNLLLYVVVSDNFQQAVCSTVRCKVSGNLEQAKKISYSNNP

O=C(O)CCC(=O)C(=O)O [α-KG, α-ketoglutarate]
effect on basal insulin secretion at 2 mM glucose (G2) (isolated mouse islets; 2 mM glucose): no effects
effect on 16 mM glucose (G16) stimulated insulin secretion (isolated mouse islets; 16 mM glucose): dose-dependently enhanced
EC50 (recombinant human OXGR1): 70 µM
EC50 (recombinant mouse OXGR1): 70 µM
